In publication PMC6222410, “Design, Synthesis and Docking Studies of Novel Macrocyclic Pentapeptides as Anticancer Multi-Targeted Kinase Inhibitors” (Molecules : A Journal of Synthetic Chemistry and Natural …, 2018):
Where two headings read alike, the source gives them in different places.

Key:
[1] = tested on: HepG-2 cell line; test: In vitro cytotoxicity on HepG-2 cell line; assay type: cell-based; conditions: HepG-2 human hepatocellular carcinoma cells, concentration inhibiting cell viability by 50%, mean of three values, read-out: IC50 (Mean ± SEM) HepG-2
Text: (§1) In vitro bioassay on human cancer cell lines was adopted against two cancer cell lines (MCF-7 and HepG-2). HepG2, human hepatocellular carcinoma and MCF-7, human breast cancer cell lines were obtained from Sigma-Aldrich Chemie GmbH, Taufkirchen, Germany.

[2] = tested on: MCF-7 cell line; test: In vitro cytotoxicity on MCF-7 cell line; assay type: cell-based; conditions: MCF-7 human breast cancer cells; concentration inhibiting cell viability by 50%; mean of three values; read-out: IC50 (Mean ± SEM) MCF-7
Text: as §1

[3] = molecular target: EGFR (Homo sapiens, UniProt P00533); test: In vitro kinase inhibition, ELISA assay; assay type: biochemical; conditions: mean of three values, read-out: IC50 (Mean±SEM) EGFR
Description: The in vitro enzyme inhibition determination for compound 5c was carried out in confirmatory diagnostic unit, Vacsera, Egypt. […]

[4] = molecular target: PDGFRβ (Homo sapiens, UniProt P09619); test: In vitro kinase inhibition, ELISA assay; assay type: biochemical; conditions: mean of three values, read-out: IC50 (Mean±SEM) PDGFRβ
[5] = molecular target: CDK-2 (Homo sapiens, UniProt P24941); test: In vitro kinase inhibition, ELISA assay; assay type: biochemical; conditions: mean of three values, read-out: IC50 (Mean±SEM) CDK-2

Chain of PDGFRβ (P09619 33-1106): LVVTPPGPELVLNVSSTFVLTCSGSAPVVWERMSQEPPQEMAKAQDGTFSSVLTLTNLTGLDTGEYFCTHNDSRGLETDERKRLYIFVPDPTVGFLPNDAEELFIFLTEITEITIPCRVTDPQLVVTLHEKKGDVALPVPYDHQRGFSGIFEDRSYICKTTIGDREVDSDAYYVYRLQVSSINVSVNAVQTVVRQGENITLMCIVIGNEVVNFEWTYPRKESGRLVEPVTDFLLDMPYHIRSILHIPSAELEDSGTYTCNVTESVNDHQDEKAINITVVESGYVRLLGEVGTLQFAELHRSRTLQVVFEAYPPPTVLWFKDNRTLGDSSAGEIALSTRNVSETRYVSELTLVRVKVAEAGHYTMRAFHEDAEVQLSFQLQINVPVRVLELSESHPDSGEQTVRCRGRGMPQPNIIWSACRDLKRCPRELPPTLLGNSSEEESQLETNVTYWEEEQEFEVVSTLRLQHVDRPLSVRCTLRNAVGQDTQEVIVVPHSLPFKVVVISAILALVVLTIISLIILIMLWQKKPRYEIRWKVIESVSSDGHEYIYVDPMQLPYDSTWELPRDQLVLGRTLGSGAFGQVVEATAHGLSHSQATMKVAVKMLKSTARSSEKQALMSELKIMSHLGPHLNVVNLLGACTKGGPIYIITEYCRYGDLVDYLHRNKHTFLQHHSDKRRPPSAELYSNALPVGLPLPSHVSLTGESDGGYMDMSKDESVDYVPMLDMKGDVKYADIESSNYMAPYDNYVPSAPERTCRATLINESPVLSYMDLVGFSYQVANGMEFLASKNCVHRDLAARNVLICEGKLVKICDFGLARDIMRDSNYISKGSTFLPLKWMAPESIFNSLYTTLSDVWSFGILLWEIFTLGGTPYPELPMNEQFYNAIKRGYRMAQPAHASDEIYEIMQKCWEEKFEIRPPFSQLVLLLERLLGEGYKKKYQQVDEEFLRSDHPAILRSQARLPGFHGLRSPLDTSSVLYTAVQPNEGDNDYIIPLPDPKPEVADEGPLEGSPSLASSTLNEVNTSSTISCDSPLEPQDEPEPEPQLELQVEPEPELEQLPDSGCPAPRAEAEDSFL
Chain of EGFR (P00533 25-1210): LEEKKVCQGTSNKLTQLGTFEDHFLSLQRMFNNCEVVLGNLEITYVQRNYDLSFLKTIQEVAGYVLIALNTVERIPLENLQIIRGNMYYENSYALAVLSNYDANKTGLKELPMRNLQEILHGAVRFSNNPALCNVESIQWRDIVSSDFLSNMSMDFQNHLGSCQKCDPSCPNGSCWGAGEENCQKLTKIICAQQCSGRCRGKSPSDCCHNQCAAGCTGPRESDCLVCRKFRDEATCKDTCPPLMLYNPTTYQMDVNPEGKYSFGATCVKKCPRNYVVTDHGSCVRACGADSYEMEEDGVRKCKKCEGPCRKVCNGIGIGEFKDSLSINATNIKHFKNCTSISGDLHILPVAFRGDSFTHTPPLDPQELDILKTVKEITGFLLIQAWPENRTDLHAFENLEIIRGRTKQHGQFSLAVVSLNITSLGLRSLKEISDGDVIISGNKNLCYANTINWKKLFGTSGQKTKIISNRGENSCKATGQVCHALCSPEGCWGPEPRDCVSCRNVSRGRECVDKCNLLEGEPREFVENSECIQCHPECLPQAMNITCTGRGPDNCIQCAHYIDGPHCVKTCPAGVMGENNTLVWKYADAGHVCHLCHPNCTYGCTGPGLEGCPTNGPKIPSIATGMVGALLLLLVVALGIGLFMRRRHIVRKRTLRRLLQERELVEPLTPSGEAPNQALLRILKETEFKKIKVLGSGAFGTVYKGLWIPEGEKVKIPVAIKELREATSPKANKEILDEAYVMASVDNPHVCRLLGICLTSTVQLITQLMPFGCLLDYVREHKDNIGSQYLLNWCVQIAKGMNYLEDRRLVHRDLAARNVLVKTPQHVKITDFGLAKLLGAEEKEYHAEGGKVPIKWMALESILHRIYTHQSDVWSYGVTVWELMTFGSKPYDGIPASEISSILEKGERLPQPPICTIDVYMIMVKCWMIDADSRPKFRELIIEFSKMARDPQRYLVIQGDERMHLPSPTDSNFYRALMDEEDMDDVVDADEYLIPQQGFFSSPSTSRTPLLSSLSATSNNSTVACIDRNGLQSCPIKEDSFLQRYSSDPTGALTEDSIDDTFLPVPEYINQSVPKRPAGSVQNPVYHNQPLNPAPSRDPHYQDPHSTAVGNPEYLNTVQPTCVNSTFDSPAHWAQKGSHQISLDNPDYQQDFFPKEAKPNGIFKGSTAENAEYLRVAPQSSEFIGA

SMILES | IC50 [1] [µM] | IC50 [2] [µM] | melting point [°C] | IC50 ([1]; HepG2) [µM] | IC50 [3] [µM] | IC50 [4] [µM] | IC50 [5] [µM]
CC[C@H](C)[C@H](NC(=O)[C@H](Cc1ccccc1)NC(=O)c1cccc(C(=O)N[C@@H](Cc2ccccc2)C(=O)N[C@H](C(=O)OC)[C@@H](C)CC)n1)C(=O)OC [Compound 2c, N^α-Dipicolinoyl-bis[L-Phe-L-ILe-methyl ester]] | 35.5 ± 1.83 | > 100 | 150 to 152 | – | – | – | –
CC[C@H](C)[C@@H]1NC(=O)c2cccc(n2)C(=O)N[C@@H]([C@@H](C)CC)C(=O)N[C@@H](Cc2ccccc2)C(=O)N[C@H](C(=O)NN)CCCCNC(=O)[C@H](Cc2ccccc2)NC1=O [Compound 6b, Cyclo-(N^α-dipicolinoyl)-bis[L-ILe-L-Phe]-L-Lys-NHNH2] | 11.5 ± 1.7 | 10.9 ± 1.1 | 161 to 163 | – | – | – | –
O=c1[nH]cc(F)c(=O)[nH]1 [5-Fluorouracil®, 5-Fluorouracil, reference compound] | – | – | – | 43.8 ± 1.84 | – | – | –
CC[C@H](C)[C@H](NC(=O)c1cccc(C(=O)N[C@H](C(=O)N[C@@H](Cc2ccccc2)C(=O)OC)[C@@H](C)CC)n1)C(=O)N[C@@H](Cc1ccccc1)C(=O)OC [Compound 2b, N^α-Dipicolinoyl-bis[L-ILe-L-Phe-methyl ester]] | 15.8 ± 1.66 | 32.6 ± 1.5 | 122 to 124 | – | – | – | –
CC[C@H](C)[C@H](NC(=O)[C@H](Cc1ccccc1)NC(=O)c1cccc(C(=O)N[C@@H](Cc2ccccc2)C(=O)N[C@H](C(=O)O)[C@@H](C)CC)n1)C(=O)O [Compound 3c, N^α-Dipicolinoyl-bis[L-Phe-L-ILe]acid] | 26.6 ± 1.85 | 29.6 ± 2.06 | 202 to 204 | – | – | – | –
CC[C@H](C)[C@@H]1NC(=O)[C@H](Cc2ccccc2)NC(=O)c2cccc(n2)C(=O)N[C@@H](Cc2ccccc2)C(=O)N[C@@H]([C@@H](C)CC)C(=O)N[C@H](C(=O)O)CCCCNC1=O [Compound 5c, Cyclo-(N^α-dipicolinoyl)-bis [L-Phe-L-ILe]-L-Lys-OH] | 7.53 ± 1.33 | 9.41 ± 1.25 | 178 to 180 | – | 0.14 | 0.08 | 0.06
CC[C@H](C)[C@@H]1NC(=O)c2cccc(n2)C(=O)N[C@@H]([C@@H](C)CC)C(=O)N[C@@H](Cc2ccccc2)C(=O)N[C@H](C(=O)OC)CCCCNC(=O)[C@H](Cc2ccccc2)NC1=O [Compound 4b, Cyclo-(N^α-Dipicolinoyl)-bis-[L-ILe-L-Phe]-L-Lys-OMe] | 10.2 ± 2.2 | 10.5 ± 1.33 | 104 to 106 | – | – | – | –
CC[C@H](C)[C@@H]1NC(=O)[C@H](Cc2ccccc2)NC(=O)c2cccc(n2)C(=O)N[C@@H](Cc2ccccc2)C(=O)N[C@@H]([C@@H](C)CC)C(=O)N[C@H](C(=O)OC)CCCCNC1=O [Compound 4c, Cyclo-(N^α-Dipicolinoyl)-bis-[L-Phe-L-ILe]-L-Lys-OMe] | 18.8 ± 1.47 | 29.2 ± 1.39 | 140 to 142 | – | – | – | –
CC[C@H](C)[C@@H]1NC(=O)c2cccc(n2)C(=O)N[C@@H]([C@@H](C)CC)C(=O)N[C@@H](Cc2ccccc2)C(=O)N[C@H](C(=O)O)CCCCNC(=O)[C@H](Cc2ccccc2)NC1=O [Compound 5b, Cyclo-(N^α-dipicolinoyl)-bis [L-ILe-L-Phe]-L-Lys-OH] | 10.1 ± 2.05 | 11.3 ± 1.15 | 128 to 130 | – | – | – | –
CC[C@H](C)[C@@H]1NC(=O)c2cccc(n2)C(=O)N[C@@H]([C@@H](C)CC)C(=O)N[C@@H]([C@@H](C)CC)C(=O)N[C@H](C(=O)O)CCCCNC(=O)[C@H]([C@@H](C)CC)NC1=O [Compound 5a, Cyclo-(N^α-dipicolinoyl)-bis [L-ILe-L-ILe]-L-Lys-OH] | 11.2 ± 1.95 | 12.7 ± 2.4 | 108 to 110 | – | – | – | –
CC[C@H](C)[C@@H]1NC(=O)[C@H](Cc2ccccc2)NC(=O)c2cccc(n2)C(=O)N[C@@H](Cc2ccccc2)C(=O)N[C@@H]([C@@H](C)CC)C(=O)N[C@H](C(=O)NN)CCCCNC1=O [Compound 6c, Cyclo-(N^α-Dipicolinoyl)-bis[L-Phe-L-ILe]-L-Lys-NHNH2] | 12.1 ± 1.68 | > 100 | 208 to 210 | – | – | – | –
CC[C@H](C)[C@@H]1NC(=O)c2cccc(n2)C(=O)N[C@@H]([C@@H](C)CC)C(=O)N[C@@H]([C@@H](C)CC)C(=O)N[C@H](C(=O)NN)CCCCNC(=O)[C@H]([C@@H](C)CC)NC1=O [Compound 6a, Cyclo-(N^α-dipicolinoyl)-bis[L-ILe-L-ILe]-L-Lys-NHNH2] | 12.4 ± 1.3 | 11.8 ± 1.62 | 180 to 182 | – | – | – | –
CC[C@H](C)[C@@H]1NC(=O)c2cccc(n2)C(=O)N[C@@H]([C@@H](C)CC)C(=O)N[C@@H]([C@@H](C)CC)C(=O)N[C@H](C(=O)OC)CCCCNC(=O)[C@H]([C@@H](C)CC)NC1=O [Compound 4a, Cyclo-(N^α-dipicolinoyl)-bis-[L-ILe-L-ILe]-L-Lys-OMe] | 11.6 ± 2.7 | > 100 | 77 to 79 | – | – | – | –
CC[C@H](C)[C@H](NC(=O)c1cccc(C(=O)N[C@H](C(=O)N[C@@H](Cc2ccccc2)C(=O)O)[C@@H](C)CC)n1)C(=O)N[C@@H](Cc1ccccc1)C(=O)O [Compound 3b, N^α-Dipicolinoyl-bis[L-ILe-L-Phe]acid] | 13.5 ± 1.45 | 25.3 ± 1.18 | 184 to 186 | – | – | – | –
CC[C@H](C)[C@H](NC(=O)[C@@H](NC(=O)c1cccc(C(=O)N[C@H](C(=O)N[C@H](C(=O)O)[C@@H](C)CC)[C@@H](C)CC)n1)[C@@H](C)CC)C(=O)O [Compound 3a, N^α-Dipicolinoyl-bis[L-ILe-L-ILe]acid] | 26 ± 2.35 | > 100 | 178 to 180 | – | – | – | –
CC[C@H](C)[C@H](NC(=O)c1cccc(C(=O)N[C@H](C(=O)N[C@H](C(=O)OC)[C@@H](C)CC)[C@@H](C)CC)n1)C(=O)N[C@H](C(=O)OC)[C@@H](C)CC [Compound 2a, N^α-Dipicolinoyl-bis[L-ILe-L-ILe-methyl ester]] | 20.4 ± 1.36 | 31.6 ± 1.3 | 106 to 108 | – | – | – | –
